Reference: US11696938B2, “Human cancer cell metastasis inhibitory agent and human cancer cell determination agent” (priority 2017, dated 2023)

Legend:
OVCAR cells [1] = experiment: Cell invasion assay; type: cell-based, human; settings: 2 or 10 μM; control peptide p1 10 μM
Method: (§1) Cell invasion was analyzed using a BD BioCoat (registered trademark) Matrigel Invasion Chamber (Becton, Dickinson and Company). First, a certain amount of cells (about 1×10^5 cells/well) were treated with 2 μM, 8 μM, or 20 μM mouse dicalcin at room temperature for 20 minutes.
(§2) The treated cells were washed by centrifugation treatment, and then plated in the upper chamber of a transwell preliminarily coated with Matrigel, followed by performing culture using DMEM (+10% FBS) as a medium.
(§3) About 16 hours later, the invading cells that had migrated into the lower chamber were fixed using 4% paraformaldehyde/phosphate buffer at room temperature for 10 minutes, and then stained with crystal violet, followed by excision of the membrane, embedding on a slide, and counting of the cell number. The invasion index was calculated as {(number of stained cells)/(number of plated cells)}×100(%), and normalized by the later-mentioned result of Experimental Example 2-2, which was taken as 100(%).
The OVCAR-3 cell line (which may be referred to as “OVCAR cells” or, simply, “cells”), which is a commonly used cell line, was used. OVCAR cells were obtained from RIKEN BioResource Center (Cell No. RCB2135), and cultured in DMEM medium (+10% FBS) according to a conventional method. This line is a human ovarian cancer (adenocarcinoma)-derived cell line.
An analysis was carried out in the same manner as in Experimental Example 2-1 except that OVCAR cells were used as the cells, and that 8 μM or 20 μM human dicalcin was used instead of mouse dicalcin.
An analysis was carried out in the same manner as in Experimental Example 9-1 except that 20 μM BSA was used instead of human dicalcin.
An analysis was carried out in the same manner as in Experimental Example 2-1 except that OVCAR cells were used as the cells, and that 2 μM or 10 μM hDC-p6 was used as a partial peptide. Statistical analysis was carried out by unpaired Student t-test in order to analyze a significant difference.

PC-3 cells [2] = experiment: Cell invasion assay; type: cell-based, human; settings: 10 μM; control hDC-p1 10 μM
Method: as §1, §2, §3
An analysis was carried out in the same manner as in Experimental Example 2-1 except that PC-3 cells were used as the cells, and that 10 μM hDC-p6 was used as a partial peptide. Statistical analysis was carried out by unpaired Student t-test in order to analyze a significant difference.

PC-3 cells [3] = experiment: Cell binding experiment; design: species or system human; settings: 5 μM rhodamine-labeled; calcium absent; control hDC-p1
Source text: The PC-3 cell line (which may be referred to as “PC-3 cells” or, simply, “cells”), which is a commonly used cell line, was used. PC-3 cells were obtained from RIKEN BioResource Center (Cell No. RCB2145), and cultured in DMEM medium (+10% FBS) according to a conventional method. This line is a human prostate cancer-derived cell line.

human cancer tissues = experiment: Cell binding experiment on paraffin sections of human cancer tissues
Method: After washing, analysis was carried out using a fluorescence microscope (Olympus Corporation).
An experiment was carried out in the same manner as in Experimental Example 15-1 except that a paraffin section derived from a human prostate cancer tissue (US Biomax Inc.) was used as a target.
An experiment was carried out in the same manner as in Experimental Example 15-1 except that a paraffin section derived from a human colorectal (colon) cancer tissue (US Biomax Inc.) was used as a target. The white dotted line indicates the border between the tumor area and the normal area.
An experiment was carried out in the same manner as in Experimental Example 15-1 except that a paraffin section derived from a human colorectal (rectal) cancer tissue (US Biomax Inc.) was used as a target. The white dotted line indicates the border between the tumor area and the normal area.
An experiment was carried out in the same manner as in Experimental Example 15-1 except that a paraffin section derived from a human breast cancer (breast ductal carcinoma) tissue (US Biomax Inc.) was used as a target.
An experiment was carried out in the same manner as in Experimental Example 15-1 except that a paraffin section derived from a human breast cancer (invasive lobular carcinoma) tissue (US Biomax Inc.) was used as a target. […]

OVCAR cells [4] = experiment: Cell binding experiment; design: species or system human; settings: 5 μM rhodamine-labeled; calcium absent; control p1
OV2944 cells [5] = experiment: Cell binding experiment (fluorescently labeled protein/peptide, confocal microscope); design: species or system mouse
Method: The OV2944-HM-1 cell line (which may be referred to as “OV2944 cells” or, simply, “cells”), which is a commonly used cell line, was used. OV2944 cells were obtained from RIKEN BioResource Center (Cell No. RCB1483), and cultured in DMEM medium (+10% FBS) according to a conventional method.
Cultured cells were fixed on a glass plate (4% paraformaldehyde/phosphate buffer, room temperature, 10 minutes), and treated with sheep serum. Thereafter, mouse dicalcin (5 μM) fluorescently labeled with tetramethylrhodamine (TMR) was reacted with the cells in the presence of 1 mM CaCl2 (4° C., overnight). After washing with TBS buffer, analysis was carried out using a confocal microscope (Carl Zeiss). Further, cell nuclei were stained with DAPI.
An experiment was carried out in the same manner as in Experimental Example 1-1 except that the reaction was carried out in the presence of 1 mM EGTA (which may be referred to as “in the absence of calcium”).
An experiment was carried out in the same manner as in Experimental Example 1-1 except that immunostaining was carried out using an anti-mouse dicalcin antibody (Catalog No. MAB5167, R&D Systems) as a primary antibody, and an Alexa Fluor (registered trademark) 594-labeled anti-rat IgG antibody (Catalog No. A11007, Invitrogen) as a secondary antibody.
An experiment was carried out in the same manner as in Experimental Example 1-1 except that each of partial peptides p1 to p7 (5 μM) fluorescently labeled with rhodamine was used.

[6] = test system: OV2944 cells expressing the fluorescent protein tdTomato; experiment: Observation of metastasis to liver after intraperitoneal cell transfer; type: in vivo, mouse; settings: 3 nmoles/two days, Day 21, versus control peptide p1
Method: The plasmid vector ptdTomato-C1 (Clontech), which expresses the fluorescent protein tdTomato, was transfected into OV2944 cells, and, 24 to 48 hours later, the cells were suspended in phosphate buffer. Using a flow cytometer (FACS Aria, BD Biosciences), the OV2944 cells expressing the fluorescent protein tdTomato shown in FIG. 13A to FIG. 13C were purified.
(§4) The purified OV2944 cells expressing the fluorescent protein tdTomato were transferred into the abdominal cavity of mice (B6C3F1 strain, 9 weeks old, female, CLEA Japan, Inc.) (1×10^5 cells/mouse). […] On Day 21, the abdominal organs were removed, and OV2944 cells expressing the fluorescent protein tdTomato in the liver were observed using a fluorescence stereomicroscope OV110 (Olympus Corporation).
FIG. 15-1B focuses on cell colonies. […] The number of colonies was counted, and a significant difference was analyzed by unpaired Student t-test.

Erk1/2 = experiment: Suppression of Erk1/2 signaling (Western blotting, pErk/Erk); type: cell-based, mouse
Source text: The OV2944 cells were extracted and sonicated, and then analyzed for the activity of Erk1/2 by Western blotting. An antibody (Cell Signaling) against Erk1/2 protein in the phosphorylated state (that is, the activated state) (pErk1/2), or an antibody (Santa Cruz) against total Erk1/2 protein including the protein in the phosphorylated state and the protein in the dephosphorylated state (Erk1/2), was used therefor. The ratio between pErk1/2 and Erk1/2 (pErk/Erk) in the Western blot image was calculated, and the data were normalized by taking the value at time 0 as 1.

OV2944 cells [7] = experiment: Analysis of survival after cell transfer (Kaplan Meier); type: in vivo, mouse
Method: as §4
Intraperitoneal injection was carried out in the same manner as in Experimental Example 13-1 and Experimental Example 13-2, and survival analysis was carried out thereafter to provide Experimental Example 14-1 and Experimental Example 14-2. For the survival curve according to the Kaplan Meier method, a significant difference was analyzed by log-rank test.

[8] = Glycolipid sugar chain array binding experiment; settings: 5 μM fluorescently labeled, 4° C. overnight
[9] = test system: GM1b on the plasma membrane of OV2944 cells; experiment: GM1b inhibition assay in relation to binding of partial peptide p6 to OV2944 cells; design: species or system mouse; settings: 5 μM TMR-labeled p6
Method: Cultured OV2944 cells were fixed on a glass plate (4% paraformaldehyde/phosphate buffer, room temperature, 10 minutes), and treated with sheep serum. […] After washing, analysis was carried out using a confocal microscope (Carl Zeiss).
An experiment was carried out in the same manner as in Experimental Example 18-1 except that GM1b was absent.
Further, an experiment was carried out in the same manner as in Experimental Example 18-1 and Experimental Example 18-2 for cases where GM1b was used alone at a concentration of 0, 10, or 100 μM, where GT1c was used alone at a concentration of 100 μM, and where GM1b and GT1c were used in combination at a concentration of 100 μM each.

OV2944 cells [10] = experiment: Cell invasion assay (Matrigel Invasion Chamber); type: cell-based, mouse
Method: as §1, §2
About 16 hours later, the invading cells that had migrated into the lower chamber were fixed using 4% paraformaldehyde/phosphate buffer at room temperature for 10 minutes, and then stained with crystal violet, followed by excision of the membrane, embedding on a slide, and counting of the cell number.

OV2944 cells [11] = experiment: Cell migration assay; type: cell-based, mouse; settings: 5 μM; versus p1 and no peptide
Method: The plasmid vector pDsRed2-C1 (Clontech), which expresses a fluorescent protein (DsRed2), was transfected into cells. […] The observation was carried out for 12 to 37 cells. Statistical analysis was carried out by unpaired Student t-test in order to analyze a significant difference.
An experiment was carried out in the same manner as in Experimental Example 8-1 except that no partial peptide was added.

Row | Substance | cell invasion (invasion index) (OVCAR cells [1]) | cell invasion (invasion index) (PC-3 cells [2]) | binding to the cells (fluorescence intensity) (PC-3 cells [3]) | binding to cancer cells of tissue sections (human cancer tissues; 5 μM, 4° C. overnight, ovarian, prostate, colon, rectal, breast (4 types), renal, lung, glioma) | determination of tumor area by fluorescence positive reaction (human cancer tissues; colon cancer section, blocking and peptide reaction together, 37° C., 1 hour) | binding to the cells (fluorescence intensity) (OVCAR cells [4]) | cell-binding ability (fluorescence intensity) (OV2944 cells [5]; 5 μM rhodamine-labeled partial peptides, ranking) | site of binding on cells (OV2944 cells [5]; 5 μM, CD44 as plasma membrane control) | number of colonies in the liver [6] | Erk1/2 activity (pErk/Erk) (Erk1/2; 5 μM p6 alone (absence of GM1b), 0-30 minutes) | Erk1/2 activity (pErk/Erk) with GM1b present (Erk1/2; p6 and GM1b present) | increase in average number of days of survival (OV2944 cells [7]; Experimental Example 14-1 relative to 14-2 (p1)) [%] | average number of days of survival (OV2944 cells [7]; intraperitoneal, 3 nmoles/two days) [days] | survival rate of mice (OV2944 cells [7]; intraperitoneal, 3 nmoles/two days, versus control peptide p1, log-rank test) | target molecule candidate by binding to glycolipid sugar chains [8] | binding to OV2944 cell / plasma membrane in presence of GM1b ([9]; GM1b in the medium (10, 100 μM)) | binding ability to OV2944 cells in presence of GT1c ([9]; GT1c 100 μM) | cell invasion, ranking of suppression (OV2944 cells [10]; 8 μM each, versus 10 μM BSA) | cell invasion, concentration dependence (OV2944 cells [10]; 0.2, 0.8, 2, 8, 20 μM) | cell migration (migration distance) (OV2944 cells [11])
1 | hDC-p6: partial peptide of human dicalcin, SEQ ID NO: 7, QLDFSEFLNLI (listed as Homo sapiens) | suppresses cell invasion in a concentration-dependent manner | suppresses cell invasion | binds to the cells | binds to cancer cells of any of these tissues | tumor area could be determined | binds to the cells | – | – | – | – | – | – | – | – | – | – | – | – | – | –
2 | partial peptide of mouse dicalcin, SEQ ID NO: 17, QLDFQEFLNLI (listed as Mus musculus) [p6] | – | – | – | – | – | – | highest cell-binding ability | binds to the plasma membranes of cells | significantly smaller | suppresses the Erk1/2 activity | disappearance of the Erk-suppressing action | 21 | 38.5 | significantly suppresses a decrease in the survival rate | GM1b ganglioside was suggested | remarkably decreased | did not change | suppresses cell invasion at the highest level | suppressed cell invasion in a concentration-dependent manner | suppresses migration of the cells
